Data reported in PubChem BioAssay AID210 (DTP/NCI, 2004).
Where “and” joins values, the source holds several entries; their conditions need not be identical. Identical values can stand only once. Toxic doses and inconclusive results are not listed.

Test system: CD2F1 mice, ip Colon 26 adenocarcinoma, median survival T/C
Test: NCI In Vivo Anticancer Drug Screen. Data for tumor model Colon 26 Adenocarcinoma (intraperitoneal) in CD2F1 (CDF1) mice
Conditions: endpoint: median survival time, higher = longer survival
Procedure: The antitumor activity of compounds was measured in mice bearing transplantable tumors. Survival or tumor size were measured and the results are expressed as the measurement made in the treated group (T) divided by the measurement made in the vehicle treated control group (C). The tumor model used in this assay is Colon 26 Adenocarcinoma (intraperitoneal) in CD2F1 (CDF1) mice

[1] = dose: 25.0 mg/kg/injection, schedule: Q04DX003 (ip), vehicle: Klucel (hydroxypropylcellulose) (HPC)
[2] = dose: 50.0 mg/kg/injection, schedule: Q04DX003 (ip), vehicle: Klucel (hydroxypropylcellulose) (HPC)
[3] = dose: 100.0 mg/kg/injection, schedule: Q04DX003 (ip), vehicle: Klucel (hydroxypropylcellulose) (HPC)
[4] = dose: 200.0 mg/kg/injection, schedule: Q04DX003 (ip), vehicle: Klucel (hydroxypropylcellulose) (HPC)
[5] = dose: 12.5 mg/kg/injection, schedule: Q04DX003 (ip), vehicle: saline with Tween-80
[6] = dose: 25.0 mg/kg/injection, schedule: Q04DX003 (ip), vehicle: saline with Tween-80
[7] = dose: 50.0 mg/kg/injection, schedule: Q04DX003 (ip), vehicle: saline with Tween-80
[8] = dose: 6.25 mg/kg/injection, schedule: Q04DX003 (ip), vehicle: saline with Tween-80
[9] = dose: 200.0 mg/kg/injection, schedule: Q04DX003 (ip), vehicle: saline with Tween-80
[10] = dose: 3.12 mg/kg/injection, schedule: Q04DX003 (ip), vehicle: saline with Tween-80
[11] = dose: 12.5 mg/kg/injection, schedule: Q04DX003 (ip), vehicle: Klucel (hydroxypropylcellulose) (HPC)
[12] = dose: 0.5 mg/kg/injection, schedule: Q04DX003 (ip), vehicle: saline
[13] = dose: 1.0 mg/kg/injection, schedule: Q04DX003 (ip), vehicle: saline

C#C[C@]1(O)CC[C@H]2[C@@H]3CCc4cc(O)ccc4[C@H]3CC[C@@]21C
T/C [1]: 103 % of control
T/C [2]: 100 % of control
T/C [3]: 96 % of control
T/C [4]: 90 % of control
T/C (dose: 400.0 mg/kg/injection, schedule: Q04DX003 (ip), vehicle: Klucel (hydroxypropylcellulose) (HPC)): 86 % of control

[I][Hg][CH2]C1COC([CH2][Hg][I])CO1 (stereo unspecified)
T/C [5]: 117 % of control
T/C [6]: 109 % of control
T/C [7]: 96 % of control

[I][Hg][CH2]C1OCCOC1[CH2][Hg][I] (stereo unspecified)
T/C [1]: 103 % of control
T/C [2]: 100 % of control

Cc1[nH]c(=O)[nH]c(=O)c1N(CCF)CCCl
T/C (dose: 8.0 mg/kg/injection, schedule: Q04DX002 (ip), vehicle: Klucel (hydroxypropylcellulose) (HPC)): 111 % of control and 112 % of control
T/C (dose: 16.0 mg/kg/injection, schedule: Q04DX002 (ip), vehicle: Klucel (hydroxypropylcellulose) (HPC)): 114 % of control and 121 % of control
T/C (dose: 32.0 mg/kg/injection, schedule: Q04DX002 (ip), vehicle: Klucel (hydroxypropylcellulose) (HPC)): 122 % of control

C=C/C(C)=C/[C@H](C)C(=O)C[C@H](O)CC1CC(=O)NC(=O)C1
T/C [8]: 97 % of control
T/C [5]: 100 % of control
T/C [6]: 108 % of control
T/C [7]: 109 % of control
T/C [9]: 121 % of control

Nc1nc(=S)c2ncn(C3CC(O)C(CO)O3)c2[nH]1 (stereo unspecified)
T/C (dose: 4.0 mg/kg/injection, schedule: Q04DX002 (ip), vehicle: saline with Tween-80): 121 % of control
T/C (dose: 8.0 mg/kg/injection, schedule: Q04DX002 (ip), vehicle: saline with Tween-80): 106 % of control
T/C (dose: 10.0 mg/kg/injection, schedule: Q04DX003 (ip), vehicle: saline with Tween-80): 177 % of control
T/C (dose: 16.0 mg/kg/injection, schedule: Q04DX002 (ip), vehicle: saline with Tween-80): 106 % of control and 119 % of control
T/C (dose: 32.0 mg/kg/injection, schedule: Q04DX002 (ip), vehicle: saline with Tween-80): 102 % of control
T/C (dose: 40.0 mg/kg/injection, schedule: Q04DX003 (ip), vehicle: saline with Tween-80): 157 % of control
T/C (dose: 64.0 mg/kg/injection, schedule: Q04DX002 (ip), vehicle: saline with Tween-80): 124 % of control
T/C (dose: 128.0 mg/kg/injection, schedule: Q04DX002 (ip), vehicle: saline with Tween-80): 116 % of control
T/C (dose: 256.0 mg/kg/injection, schedule: Q04DX002 (ip), vehicle: saline with Tween-80): 109 % of control

C1CCC2[N-]CC3CCCCC3[N-]CC3CCCCC3[N-]CC3CCCCC3[N-]CC2C1.[Cu] (stereo unspecified)
T/C (dose: 0.63 mg/kg/injection, schedule: Q04DX003 (ip), vehicle: Klucel (hydroxypropylcellulose) (HPC)): 110 % of control
T/C (dose: 1.25 mg/kg/injection, schedule: Q04DX003 (ip), vehicle: Klucel (hydroxypropylcellulose) (HPC)): 107 % of control
T/C (dose: 2.5 mg/kg/injection, schedule: Q04DX003 (ip), vehicle: Klucel (hydroxypropylcellulose) (HPC)): 105 % of control
T/C (dose: 5.0 mg/kg/injection, schedule: Q04DX003 (ip), vehicle: Klucel (hydroxypropylcellulose) (HPC)): 111 % of control
T/C (dose: 10.0 mg/kg/injection, schedule: Q04DX003 (ip), vehicle: Klucel (hydroxypropylcellulose) (HPC)): 122 % of control
T/C (dose: 20.0 mg/kg/injection, schedule: Q04DX003 (ip), vehicle: Klucel (hydroxypropylcellulose) (HPC)): 111 % of control

CC(=O)Nc1ccc(O)c(O)c1
T/C [5]: 94 % of control
T/C [6]: 106 % of control
T/C [7]: 96 % of control
T/C (dose: 100.0 mg/kg/injection, schedule: Q04DX003 (ip), vehicle: saline with Tween-80): 120 % of control
T/C [9]: 100 % of control
T/C (dose: 400.0 mg/kg/injection, schedule: Q04DX003 (ip), vehicle: saline with Tween-80): 108 % of control

COc1cc(C)c2c(c1C=O)Oc1c(c(C)c(O)c3c1C(O)OC3=O)OC2=O (stereo unspecified)
T/C [10]: 103 % of control
T/C [8]: 103 % of control
T/C [5]: 104 % of control
T/C [6]: 101 % of control
T/C [7]: 112 % of control

CCN(CC)CCNc1ccc(C)c2sc3ccccc3c(=O)c12
T/C (dose: 25.0 mg/kg/injection, schedule: Q04DX002 (ip), vehicle: suspension in saline): 102 % of control
T/C (dose: 50.0 mg/kg/injection, schedule: Q04DX002 (ip), vehicle: suspension in saline): 105 % of control
T/C (dose: 100.0 mg/kg/injection, schedule: Q04DX002 (ip), vehicle: suspension in saline): 103 % of control
T/C (dose: 200.0 mg/kg/injection, schedule: Q04DX002 (ip), vehicle: suspension in saline): 119 % of control

CCc1c(CC(=O)O)c2cc(C)ccc2n1Cc1ccc(Cl)cc1
T/C (dose: 6.25 mg/kg/injection, schedule: Q04DX003 (ip), vehicle: Klucel (hydroxypropylcellulose) (HPC)): 89 % of control
T/C [11]: 95 % of control
T/C [1]: 97 % of control
T/C [2]: 100 % of control
T/C [3]: 111 % of control

CN1C(=O)CC2(CCN(CCCC(=O)c3ccc(F)cc3)CC2)C1=O
T/C [10]: 96 % of control
T/C [8]: 98 % of control
T/C [5]: 100 % of control
T/C [6]: 100 % of control
T/C [7]: 102 % of control

C[C@@]1(CO)[C@H](O)CC[C@@]2(C)[C@H]1CC[C@H]1C[C@@H]3C[C@@]12CC[C@@]3(O)COC(=O)CN
T/C (dose: 12.5 mg/kg/injection, schedule: Q01DX009 (ip), vehicle: saline + alcohol): 113 % of control
T/C (dose: 25.0 mg/kg/injection, schedule: Q01DX009 (ip), vehicle: saline + alcohol): 95 % of control
T/C (dose: 25.0 mg/kg/injection, schedule: Q04DX003 (iv), vehicle: saline): 115 % of control
T/C (dose: 50.0 mg/kg/injection, schedule: Q01DX009 (ip), vehicle: saline + alcohol): 106 % of control
T/C (dose: 50.0 mg/kg/injection, schedule: Q04DX003 (iv), vehicle: saline): 118 % of control
T/C (dose: 75.0 mg/kg/injection, schedule: Q01DX009 (ip), vehicle: saline + alcohol): 94 % of control
T/C (dose: 100.0 mg/kg/injection, schedule: Q04DX003 (iv), vehicle: saline): 100 % of control

CN(Cc1cnc2nc(N)nc(N)c2n1)c1c(Cl)cc(C(=O)NC(CCC(=O)O)C(=O)O)cc1Cl (stereo unspecified)
T/C [11]: 105 % of control
T/C [1]: 102 % of control
T/C [2]: 104 % of control
T/C [3]: 104 % of control
T/C [4]: 118 % of control

COc1ccc2c(c1)CCC(c1ccccc1)=C2c1ccc(OCCN2CCCC2)cc1
T/C (dose: 6.25 mg/kg/injection, schedule: Q01DX009 (ip), vehicle: saline): 115 % of control
T/C (dose: 12.5 mg/kg/injection, schedule: Q01DX009 (ip), vehicle: saline): 111 % of control
T/C (dose: 25.0 mg/kg/injection, schedule: Q01DX009 (ip), vehicle: saline): 112 % of control

CC1CC(C)CC(C)C(O)/C(C#N)=C/C=C/CC(C2CCCC2C(=O)O)OC(=O)CC(O)C(C)C1 (stereo unspecified)
T/C [12]: 103 % of control
T/C [13]: 105 % of control
T/C (dose: 2.0 mg/kg/injection, schedule: Q04DX003 (ip), vehicle: saline): 100 % of control

Nc1ncnc2c1ncn2C1OC(CO)CC1O (stereo unspecified)
T/C (dose: 37.5 mg/kg/injection, schedule: Q04DX002 (ip), vehicle: Klucel (hydroxypropylcellulose) (HPC)): 101 % of control
T/C (dose: 75.0 mg/kg/injection, schedule: Q04DX002 (ip), vehicle: Klucel (hydroxypropylcellulose) (HPC)): 110 % of control
T/C (dose: 150.0 mg/kg/injection, schedule: Q04DX002 (ip), vehicle: Klucel (hydroxypropylcellulose) (HPC)): 93 % of control

O=C(O)c1c2c(nc3ccccc13)Cc1ccccc1-2
T/C (dose: 12.5 mg/kg/injection, schedule: Q04DX002 (ip), vehicle: water): 97 % of control
T/C (dose: 25.0 mg/kg/injection, schedule: Q04DX002 (ip), vehicle: water): 113 % of control
T/C (dose: 100.0 mg/kg/injection, schedule: Q04DX002 (ip), vehicle: water): 105 % of control

CC(=O)OCC1(C)C(O)CCC2(C)C1CCC1CC3CC12CCC3(O)CO (stereo unspecified)
T/C (dose: 12.5 mg/kg/injection, schedule: Q04DX002 (ip), vehicle: distilled water + Tween-80): 103 % of control
T/C (dose: 25.0 mg/kg/injection, schedule: Q04DX002 (ip), vehicle: distilled water + Tween-80): 111 % of control
T/C (dose: 50.0 mg/kg/injection, schedule: Q04DX002 (ip), vehicle: distilled water + Tween-80): 95 % of control
T/C (dose: 100.0 mg/kg/injection, schedule: Q04DX002 (ip), vehicle: distilled water + Tween-80): 104 % of control

OC(C1CO1)C(O)C1CO1 (stereo unspecified)
T/C [12]: 110 % of control
T/C [13]: 109 % of control
T/C (dose: 7.6 mg/kg/injection, schedule: Q07DX003 (iv), vehicle: saline): 165 % of control
T/C (dose: 8.0 mg/kg/injection, schedule: Q04DX003 (ip), vehicle: saline): 338 % of control
T/C (dose: 12.0 mg/kg/injection, schedule: Q07DX003 (iv), vehicle: saline): 193 % of control
